What is called IC50 is the concentration at which inhibition is half-maximal. The EC50 is the midpoint of the concentration-response curve. High values mean a need for much substance, low ones an effect from little substance.

The source of these data is PMC8004712, “MRAP2 Interaction with Melanocortin-4 Receptor in SnakeHead (Channa argus)” (Biomolecules, 2021).

One assay deals with MC4R. Particulars: ref [36],[59],[65]; cited from earlier work. The text has this:
(decreased cell surface expression), or zebrafish and topmouth culter (increased cell surface expression). Therefore, MRAP2 has a differential effect on MC4R membrane expression in different species. […] In topmouth culter, two isoforms of MRAP2 are also sho ...

Assay [1] deals with caMC4R. Put plainly: Ligand binding assay, caMC4R (displacement of ^125I-NDP-MSH). Details: species or system Channa argus (Northern snakehead). Particulars: HEK293T cells, 48 h after transfection, competition with ^125I-NDP-MSH, 1-h incubation, DMEM/BSA, gamma counter, mean ± SEM of at least three independent experiments.
The subject of assay [2] is caMC4R. Kind of assay: cAMP assay, caMC4R. The class given is cell-based, Channa argus (Northern snakehead). The conditions noted are these: HEK293T cells. (Changes in cAMP serve as a functional read-out for many G protein-coupled receptors.)
The subject of assay [3] is brain gnih, sgnrh and cgnrh; ovarian genes. The conditions noted are these: black rockfish, ref not given, cited from earlier work. From the text: In addition to energy homeostasis, MC4R also regulates reproduction and sexual function. Compared with mammals, the evidence of MC4R in regulating teleost reproduction is relatively scarce. In swordtail fish, nonfunctional Y-linked mc4r copies in larger males act as dominant-negative mutants and delay puberty onset. In spotted scat, MC4R stimulates gnrh expression in the hypothalamus, thereby modulating pituitary FSH and LH synthesis.

Another assay has as its system goldfish. The conditions noted are these: intracerebroventricular, ref [25]; cited from earlier work. The text has this:
MC4R has been investigated in several non-mammalian vertebrates including ectotherm fish, such as goldfish, rainbow trout, spotted scat, grass carp, ricefield eel, orange-spotted grouper, and topmouth culter. Similar to mammalian MC4Rs, teleost MC4R is also involved in regulating food intake and maintaining energy balance. […] Meanwhile, intracerebroventricular administration of M ...

Take ACTH: in the assay on MC4R, the “ligand sensitivity of MC4R to ACTH in the presence of MRAP2” value was “increasing ligand sensitivity to ACTH”.

Consider `CSCC[C@H](NC(=O)[C@H](CCCNC(=N)N)NC(=O)[C@H](Cc1ccc(O)cc1)NC(=O)[C@@H]1CCCN1C(=O)CNC(=O)[C@H](CCC(=O)O)NC(=O)[C@H](CC(=O)O)NC(=O)[C@H](CCCCN)NC(=O)[C@H](CCCCN)NC(=O)[C@H](CCC(=O)O)NC(=O)[C@H](C)N)C(=O)N[C@@H](CCC(=O)O)C(=O)N[C@@H](Cc1c[nH]cn1)C(=O)N[C@@H](Cc1ccccc1)C(=O)N[C@@H](CCCNC(=N)N)C(=O)N[C@@H](Cc1c[nH]c2ccccc12)C(=O)NCC(=O)N[C@@H](CO)C(=O)N1CCC[C@H]1C(=O)N1CCC[C@H]1C(=O)N[C@@H](CCCCN)C(=O)N[C@@H](CC(=O)O)C(=O)O` [β-MSH], for which the concentration for half-maximal inhibition (IC50) on caMC4R [1] came out at 329 ± 120 nM. The “maximal response at caMC4R in comparison with hMC4R” value in the assay on caMC4R [2] (caMC4R vs hMC4R, cAMP) is recorded as “higher maximal responses than hMC4R”. The Rmax in the assay with caMC4R [2] (caMC4R, % of hMC4R, cAMP by RIA, 1 h at 37 °C, maximal response, mean ± SEM of at least three independent experiments) was found to be 163.9 ± 89.36%. This compound also gave a half-maximal effective concentration (EC50) with caMC4R [2] (caMC4R, cAMP by RIA, 0.5 mM isobutylmethylxanthine, 1 h at 37 °C, 10^−12 to 10^−6 M NDP-MSH and ACTH (1–24), 10^−11 to 10^−5 M α-MSH and β-MSH, mean ± SEM of at least three independent experiments) of 2.49 ± 0.81 nM. For the same compound, the “expression of brain gnih, sgnrh and cgnrh” value in assay [3] (in vitro) is “increase brain gnih and decrease sgnrh and cgnrh expression in vitro”. In assay [3], the “expression of ovarian genes” value was “affect expression of some ovarian genes”.

Consider HS024, for which the “food intake” value in the assay with goldfish is “stimulates food intake”.

In the case of melanotan II, the “food intake” value in the assay with goldfish is recorded as “inhibits food intake”.
